This is an account of results in US20260001967A1, “SYNTHETIC HEXASACCHARIDES MIMICS OF HEPARIN SHOWING HEPARANASE INHIBITION ACTIVITY” (CENTRO ALTA TECNOLOGIA ISTITUTO DI RICERCHE CHIMICHE E …, priority 2022, published 2026).

Like-named read-outs stand apart in the source and are kept apart here.

The target in experiment [1] is T1, heparanase (Homo sapiens, UniProt Q9Y251).
T1 sequence (Q9Y251 158-543 limits assumed): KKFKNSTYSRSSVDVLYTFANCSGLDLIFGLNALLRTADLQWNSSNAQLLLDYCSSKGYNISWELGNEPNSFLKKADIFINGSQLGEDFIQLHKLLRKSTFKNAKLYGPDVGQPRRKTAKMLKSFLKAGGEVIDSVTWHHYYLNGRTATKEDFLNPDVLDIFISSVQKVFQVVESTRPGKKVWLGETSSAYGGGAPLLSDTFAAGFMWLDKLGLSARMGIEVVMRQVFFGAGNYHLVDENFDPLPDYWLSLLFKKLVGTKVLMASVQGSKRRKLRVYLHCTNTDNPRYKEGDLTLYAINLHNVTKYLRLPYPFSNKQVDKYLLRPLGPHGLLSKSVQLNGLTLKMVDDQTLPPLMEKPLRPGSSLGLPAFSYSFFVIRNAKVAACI
T1 sequence (Q9Y251 36-109 limits assumed): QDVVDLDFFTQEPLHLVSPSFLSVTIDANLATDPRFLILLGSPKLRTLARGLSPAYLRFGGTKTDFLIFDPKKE
In words: Heparanase inhibition assay based on cleavage of fondaparinux, disaccharide assayed by colorimetry (Hammond). Type of experiment: biochemical. Particulars: for Inhibition of heparanase: over the concentration range tested. The text has this: To prepare 12 we adopted (Scheme 1) a classical disaccharide building-block approach (C. Tabeur et al., Oligosaccharides corresponding to the regular sequence of heparin: chemical synthesis and interaction with FGF-2. Bioorg. Med. Chem. 1999, 7, 2003-2012) based on the trichloroacetimidate glycosylation method (R. R. Schmidt, W. Kinzy, Adv. Carbohydr. Chem. Biochem. 1992, 50, 21-123). […] The hexasaccharide sequence was completed by reaction under similar conditions with the trichloroacetimidate disaccharide 8 itself classically obtained from 6. […] After saponification to remove the acetyl groups and cleave the methyl esters, preparative HPLC allowed to separate 10 from its β-anomer. […] The glycol-split derivatives were then obtained (Scheme 2). […] The inhibition of heparanase was evaluated using an assay based on the cleavage of the synthetic heparin pentasaccharide fondaparinux (Arixtra®; Aspen). Cleavage of fondaparinux by heparanase, yields a disaccharide that is assayed by colorimetry. The assay was essentially performed as described by Hammond (E. Hammond, C. P. Li, V. Ferro, Development of a colorimetric assay for heparanase activity suitable for kinetic analysis and inhibitor screening, Anal. Biochem. 396 (2010), 112-116, http://doi.10.1016/j.ab.2009.09.007.
Serial dilutions of the compounds and of the reference roneparstat were tested. IC50 values were ultimately determined using GraphPad software.

Experiment [2] addresses T1, heparanase. As to conditions: cited from earlier work.

As for `COC1OC(COS(=O)(=O)O)C(OC2OC(C(=O)O)C(OC3OC(COS(=O)(=O)O)C(OC4OC(C(=O)O)C(OC5OC(COS(=O)(=O)O)C(OC6OC(C(=O)O)C(OC)C(O)C6OS(=O)(=O)O)C(O)C5NC(C)=O)C(O)C4O)C(O)C3NC(C)=O)C(O)C2OS(=O)(=O)O)C(O)C1NC(C)=O` (stereo not drawn) [Compound 16], the Inhibition of heparanase result at heparanase [1] is “hardly detectable”.

At heparanase [1], Roneparstat [reference compound] showed an IC50 of 0.006 µg/mL.

Consider GlcN(Ns,6s)-GlcA(gs)-GlcN(Ns,1,6anh), for which, on heparanase [2], the IC50 was 2 µg/mL.

Take `COC1OC(COS(=O)(=O)O)C(OC2OC(C(=O)O)C(OC3OC(COS(=O)(=O)O)C(OC4OC(C(=O)O)C(OC5OC(COS(=O)(=O)O)C(OC6OC(C(=O)O)C(OC)C(O)C6OS(=O)(=O)O)C(O)C5N)C(O)C4O)C(O)C3N)C(O)C2OS(=O)(=O)O)C(O)C1N` (stereo not drawn) [Compound 12]: the Inhibition of heparanase entry at heparanase [1] was “hardly detectable”.

Take `COC1OC(COS(=O)(=O)O)C(OC2OC(C(=O)O)C(OC3OC(COS(=O)(=O)O)C(OC4OC(C(=O)O)C(OC5OC(COS(=O)(=O)O)C(OC6OC(C(=O)O)C(OC)C(O)C6OS(=O)(=O)O)C(O)C5NS(=O)(=O)O)C(O)C4O)C(O)C3NS(=O)(=O)O)C(O)C2OS(=O)(=O)O)C(O)C1NS(=O)(=O)O` (stereo not drawn) [Compound 13]: on heparanase [1] (Table 1, hexasaccharides, read-out: IC50), the concentration for half-maximal inhibition (IC50) was > 29.4 µM. In addition, the Inhibition of heparanase entry at heparanase [1] is “hardly detectable”.

For orientation: IC50 means the concentration needed to halve the response being measured.
